Measurements taken from US7560468B2, “Substituted 1,4,8-triazaspiro[4,5]decan-2-one compounds” (Gruenenthal GmbH, priority 2004, dated 2009).

Tested on: batrachotoxin (BTX) binding site of the sodium channel
Test: Affinity to the batrachotoxin (BTX) binding site of the sodium channel
Settings: rat cerebrocortex synaptosomes, [3H]-batrachotoxinin A20 α-benzoate 10 nM; test concentration not given

Row | Compound | BTX Inhibition
1 | 1-Allyl-3-isopropyl-2-oxo-1,4,8-triazaspiro[4,5]decan-8-thiocarboxylic acid (3,5-dichlorobenzol)amide [Example 180] | 54
2 | O=C1C(Cc2ccccc2)NC2(CCN(C(=S)NCc3ccc(Cl)cc3)CC2)N1Cc1ccccc1F (centres unmarked) [Example 197, 3-Benzyl-1-(2-fluorobenzyl)-2-oxo-1,4,8-triazaspiro[4,5]decan-8-thiocarboxylic acid 4-chlorobenzylamide] | 77
3 | CC(=O)c1cccc(NC(=S)N2CCC3(CC2)NC(CC(C)C)C(=O)N3Cc2ccccc2C#N)c1 (centres unmarked) [Example 141, 1-(2-Cyanobenzyl)-3-isobutyl-2-oxo-1,4,8-triazaspiro[4,5]decan-8-thiocarboxylic acid (3-acetylbenzol)amide] | 50
4 | 1-Butyl-3-isopropyl-2-oxo-1,4,8-triazaspiro[4,5]decan-8-thiocarboxylic acid (3-chlorobenzol)amide [Example 142] | 63
5 | COC(=O)c1ccc(CN2C(=O)C(C(C)C)NC23CCN(C(=S)NCc2ccc(Cl)cc2)CC3)cc1 (centres unmarked) [Example 191, Methyl 4-[8-(4-chlorobenzylthiocarbamoyl)-3-isopropyl-2-oxo-1,4,8-triazaspiro[4,5]dec-1-ylmethyl]-benzoate] | 74
6 | C=CCN1C(=O)C(CCSC)NC12CCN(S(=O)(=O)c1ccc3c(c1)CN(C(=O)C(F)(F)F)CC3)CC2 (centres unmarked) [Example 78, 1-Allyl-3-(2-methylsulfanylethyl)-8-[2-(2,2,2-trifluoroacetyl)-1,2,3,4-tetrahydroisoquinolin-7-sulfonyl]-1,4,8-triazaspiro[4,5]decan-2-one] | 32
7 | C#CCN1C(=O)C(CC(C)C)NC12CCN(C(=S)Nc1c(Cl)cccc1Cl)CC2 (centres unmarked) [Example 190, 3-Isobutyl-2-oxo-1-prop-2-ynyl-1,4,8-triazaspiro[4,5]decan-8-thiocarboxylic acid (2,6-dichlorobenzol)amide] | 53
8 | Cc1cc(S(=O)(=O)N2CCC3(CC2)NC(CC(C)C)C(=O)N3Cc2ccccc2)c(C)cc1Cl (centres unmarked) [Example 27, 1-Benzyl-8-(4-chloro-2,5-dimethylbenzolsulfonyl)-3-isobutyl-1,4,8-triazaspiro[4,5]decan-2-one] | 59
9 | C=CCN1C(=O)C(C(C)C)NC12CCN(C(=O)Nc1cc(F)ccc1F)CC2 (centres unmarked) [Example 209, 1-Allyl-3-isopropyl-2-oxo-1,4,8-triazaspiro[4,5]decan-8-carboxylic acid (2,5-difluorobenzol)amide] | 31
10 | Cc1ccc(S(=O)(=O)N2CCC3(CC2)NC(C(C)C)C(=O)N3CCOc2ccccc2)cc1 (centres unmarked) [Example 21, 3-Isopropyl-1-(2-phenoxy-ethyl)-8-(toluol-4-sulfonyl)-1,4,8-triazaspiro[4,5]decan-2-one] | 54
11 | CSCCC1NC2(CCN(C(=S)NCc3ccc(Cl)cc3)CC2)N(C)C1=O (centres unmarked) [Example 133, 1-Methyl-3-(2-methylsulfanylethyl)-2-oxo-1,4,8-triazaspiro[4,5]decan-8-thiocarboxylic acid (4-chlorobenzol)amide] | 44
12 | C=CCN1C(=O)C(C(C)C)NC12CCN(S(=O)(=O)c1c(C)cc(C)cc1C)CC2 (centres unmarked) [Example 70, 1-Allyl-3-isopropyl-8-(2,4,6-trimethylbenzolsulfonyl)-1,4,8-triazaspiro[4,5]decan-2-one] | 60
13 | CC(C)C1NC2(CCN(C(=S)NCc3ccccc3)CC2)N(Cc2ccccc2)C1=O (centres unmarked) [Example 199, 1-Benzyl-3-isopropyl-2-oxo-1,4,8-triazaspiro[4,5]decan-8-thiocarboxylic acid benzylamide] | 44
14 | CSCCC1NC2(CCN(C(=S)NCc3cc(F)ccc3F)CC2)N(C)C1=O (centres unmarked) [Example 138, 1-Methyl-3-(2-methylsulfanylethyl)-2-oxo-1,4,8-triazaspiro[4,5]decan-8-thiocarboxylic acid (2,5-difluorobenzol)amide] | 34
